{"source": "patent US20100041089A1", "about": "“IMPROVED METHOD FOR DETECTING CHEMICAL […]” (priority 2006, published 2010)", "tested_on": "yeast genes (expressed mRNA)", "experiment": "DNA chip measurement of expressed mRNA of yeast genes after culture with a toxic chemical substance", "assay_type": "cell-based, Saccharomyces cerevisiae S288C", "conditions": "for level of expressed mRNA in the presence of chemical substance / level in the absence of chemical substance: cultured two hours with the chemical substance; for The level of expressed mRNA in the presence of chemical substance/The level of expressed mRNA in the absence of chemical substance: cultured two hours with substance", "in_short": "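S. cerevisiae S288C grown at 25 °C in YPD, exposed in log phase for 2 h to a toxicant at growth-inhibiting, non-lethal concentration. Cy3/Cy5-labelled cDNA from poly(A) mRNA hybridized to whole-genome chip at 65 °C >12 h. Ratio to untreated control, ≥2 significant.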"}
{"substance": "Na2As [(1)]", "values": [{"measurement": "level of expressed mRNA in the presence of chemical substance / level in the absence of chemical substance", "setting": "yeast gene YDR133C", "result": 0.9}, {"measurement": "level of expressed mRNA in the presence of chemical substance / level in the absence of chemical substance", "setting": "yeast gene YDR250C", "result": 1.9}, {"measurement": "level of expressed mRNA in the presence of chemical substance / level in the absence of chemical substance", "setting": "yeast gene YDR278C", "result": 1.0}, {"measurement": "level of expressed mRNA in the presence of chemical substance / level in the absence of chemical substance", "setting": "yeast gene YDR281C", "result": 2.1}, {"measurement": "The level of expressed mRNA in the presence of chemical substance/The level of expressed mRNA in the absence of chemical substance", "setting": "yeast gene YDR330W", "result": 0.8}, {"measurement": "level of expressed mRNA in the presence of chemical substance / level in the absence of chemical substance", "setting": "yeast gene YDR366C", "result": 0.9}, {"measurement": "The level of expressed mRNA in the presence of chemical substance/The level of expressed mRNA in the absence of chemical substance", "setting": "yeast gene YDR411C", "result": 0.9}, {"measurement": "The level of expressed mRNA in the presence of chemical substance/The level of expressed mRNA in the absence of chemical substance", "setting": "yeast gene YDR511W", "result": 1.3}, {"measurement": "The level of expressed mRNA in the presence of chemical substance/The level of expressed mRNA in the absence of chemical substance", "setting": "yeast gene YDR545W", "result": 0.6}, {"measurement": "The level of expressed mRNA in the presence of chemical substance/The level of expressed mRNA in the absence of chemical substance", "setting": "yeast gene YEL001C", "result": 1.0}, {"measurement": "The level of expressed mRNA in the presence of chemical substance/The level of expressed mRNA in the absence of chemical substance", "setting": "yeast gene YER004W", "result": 1.0}, {"measurement": "The level of expressed mRNA in the presence of chemical substance/The level of expressed mRNA in the absence of chemical substance", "setting": "yeast gene YER035W", "result": 1.4}, {"measurement": "The level of expressed mRNA in the presence of chemical substance/The level of expressed mRNA in the absence of chemical substance", "setting": "yeast gene YER079W", "result": 1.1}, {"measurement": "The level of expressed mRNA in the presence of chemical substance/The level of expressed mRNA in the absence of chemical substance", "setting": "yeast gene YER106W", "result": 1.3}, {"measurement": "The level of expressed mRNA in the presence of chemical substance/The level of expressed mRNA in the absence of chemical substance", "setting": "yeast gene YER158C", "result": 1.2}, {"measurement": "The level of expressed mRNA in the presence of chemical substance/The level of expressed mRNA in the absence of chemical substance", "setting": "yeast gene YER163C", "result": 1.1}, {"measurement": "The level of expressed mRNA in the presence of chemical substance/The level of expressed mRNA in the absence of chemical substance", "setting": "yeast gene YER175C", "result": 0.9}, {"measurement": "The level of expressed mRNA in the presence of chemical substance/The level of expressed mRNA in the absence of chemical substance", "setting": "yeast gene YFL006W", "result": 0.8}, {"measurement": "The level of expressed mRNA in the presence of chemical substance/The level of expressed mRNA in the absence of chemical substance", "setting": "yeast gene YFL010C", "result": 1.0}, {"measurement": "The level of expressed mRNA in the presence of chemical substance/The level of expressed mRNA in the absence of chemical substance", "setting": "yeast gene YFL024C", "result": 1.0}, {"measurement": "The level of expressed mRNA in the presence of chemical substance/The level of expressed mRNA in the absence of chemical substance", "setting": "yeast gene YFL032W", "result": 0.4}, {"measurement": "level of expressed mRNA in the presence of chemical substance / level in the absence of chemical substance", "setting": "yeast gene YFR026C", "result": 0.9}, {"measurement": "The level of expressed mRNA in the presence of chemical substance/The level of expressed mRNA in the absence of chemical substance", "setting": "yeast gene YGL037C", "result": 1.5}, {"measurement": "The level of expressed mRNA in the presence of chemical substance/The level of expressed mRNA in the absence of chemical substance", "setting": "yeast gene YGL047W", "result": 1.0}, {"measurement": "The level of expressed mRNA in the presence of chemical substance/The level of expressed mRNA in the absence of chemical substance", "setting": "yeast gene YGL053W", "result": 1.5}, {"measurement": "level of expressed mRNA in the presence of chemical substance / level in the absence of chemical substance", "setting": "yeast gene YGL088W", "result": 0.9}, {"measurement": "The level of expressed mRNA in the presence of chemical substance/The level of expressed mRNA in the absence of chemical substance", "setting": "yeast gene YGL121C", "result": 2.6}, {"measurement": "The level of expressed mRNA in the presence of chemical substance/The level of expressed mRNA in the absence of chemical substance", "setting": "yeast gene YGL199C", "result": 1.1}, {"measurement": "level of expressed mRNA in the presence of chemical substance / level in the absence of chemical substance", "setting": "yeast gene YGR038W", "result": 0.9}, {"measurement": "The level of expressed mRNA in the presence of chemical substance/The level of expressed mRNA in the absence of chemical substance", "setting": "yeast gene YGR101W", "result": 1.0}, {"measurement": "The level of expressed mRNA in the presence of chemical substance/The level of expressed mRNA in the absence of chemical substance", "setting": "yeast gene YGR110W", "result": 1.6}, {"measurement": "The level of expressed mRNA in the presence of chemical substance/The level of expressed mRNA in the absence of chemical substance", "setting": "yeast gene YGR130C", "result": 0.9}, {"measurement": "level of expressed mRNA in the presence of chemical substance / level in the absence of chemical substance", "setting": "yeast gene YGR139W", "result": 1.3}, {"measurement": "The level of expressed mRNA in the presence of chemical substance/The level of expressed mRNA in the absence of chemical substance", "setting": "yeast gene YGR154C", "result": 1.8}, {"measurement": "The level of expressed mRNA in the presence of chemical substance/The level of expressed mRNA in the absence of chemical substance", "setting": "yeast gene YGR221C", "result": 0.9}, {"measurement": "level of expressed mRNA in the presence of chemical substance / level in the absence of chemical substance", "setting": "yeast gene YGR243W", "result": 1.4}, {"measurement": "level of expressed mRNA in the presence of chemical substance / level in the absence of chemical substance", "setting": "yeast gene YGR293C", "result": 0.5}, {"measurement": "level of expressed mRNA in the presence of chemical substance / level in the absence of chemical substance", "setting": "yeast gene YHL006C", "result": 0.7}, {"measurement": "level of expressed mRNA in the presence of chemical substance / level in the absence of chemical substance", "setting": "yeast gene YHR095W", "result": 1.1}, {"measurement": "level of expressed mRNA in the presence of chemical substance / level in the absence of chemical substance", "setting": "yeast gene YHR105W", "result": 0.9}, {"measurement": "The level of expressed mRNA in the presence of chemical substance/The level of expressed mRNA in the absence of chemical substance", "setting": "yeast gene YHR138C", "result": 2.8}, {"measurement": "level of expressed mRNA in the presence of chemical substance / level in the absence of chemical substance", "setting": "yeast gene YHR181W", "result": 0.9}, {"measurement": "The level of expressed mRNA in the presence of chemical substance/The level of expressed mRNA in the absence of chemical substance", "setting": "yeast gene YHR199C", "result": 1.9}, {"measurement": "The level of expressed mRNA in the presence of chemical substance/The level of expressed mRNA in the absence of chemical substance", "setting": "yeast gene YIL023C", "result": 1.1}, {"measurement": "The level of expressed mRNA in the presence of chemical substance/The level of expressed mRNA in the absence of chemical substance", "setting": "yeast gene YIL041W", "result": 1.0}, {"measurement": "The level of expressed mRNA in the presence of chemical substance/The level of expressed mRNA in the absence of chemical substance", "setting": "yeast gene YIL087C", "result": 1.3}, {"measurement": "level of expressed mRNA in the presence of chemical substance / level in the absence of chemical substance", "setting": "yeast gene YIL127C", "result": 1.1}, {"measurement": "level of expressed mRNA in the presence of chemical substance / level in the absence of chemical substance", "setting": "yeast gene YJL017W", "result": 1.1}, {"measurement": "level of expressed mRNA in the presence of chemical substance / level in the absence of chemical substance", "setting": "yeast gene YJL037W", "result": 1.8}, {"measurement": "The level of expressed mRNA in the presence of chemical substance/The level of expressed mRNA in the absence of chemical substance", "setting": "yeast gene YJL057C", "result": 1.5}, {"measurement": "The level of expressed mRNA in the presence of chemical substance/The level of expressed mRNA in the absence of chemical substance", "setting": "yeast gene YJL066C", "result": 0.9}, {"measurement": "The level of expressed mRNA in the presence of chemical substance/The level of expressed mRNA in the absence of chemical substance", "setting": "yeast gene YJL082W", "result": 1.4}, {"measurement": "level of expressed mRNA in the presence of chemical substance / level in the absence of chemical substance", "setting": "yeast gene YJL097W", "result": 1.0}]}
